Laboratory results taken from patent US9718846B1, “Crystalline polymorphs of benfotiamine, process for preparation and its use thereof” (Shanghai Ri Xin Biotechnolgy Co., Ltd., priority 2012, dated 2017).

How the values were obtained:
[1] = Dynamic vapor sorption analysis of hygroscopicity; assay type: physicochemical; details: RH from 5% to 95%, comparison of forms A, C, D, E
Text: Dynamic vapor sorption analysis was used for measurement of the hygroscopicity of crystalline form A, C, D, and E under the scope of relative humidity (RH) from 5% to 95%.

[2] = Solubility in methanol/dichloromethane mixture; assay type: physicochemical; details: methanol/dichloromethane mixture (1:3 v/v), organic solvent or mixture; mixture organic solvent of methanol and dichloromethane (volume ratio 1:3)
Description: In 200 μl of a mixture organic solvent of methanol and dichloromethane (volume ratio 1:3) was added 10 mg of the crystalline form E of benfotiamine (solubility 50 mg/ml). Then, 1 ml of the poor solvent of ethanol was slowly added to the mixture along device wall. Precipitated crystals were collected by filtration, followed by evaporated in the air.

hygroscopicity rank among the four crystalline forms [1] | solubility [2] [mg/mL] | Structure (SMILES)
highest | – | C/C(=C(\CCO[P+]([O-])(O)O)SC(=O)c1ccccc1)N(C=O)Cc1cnc(C)nc1N [crystalline form D, S-benzoylthiamine O-monophosphate]
lowest | 50 | C/C(=C(\CCO[P+]([O-])(O)O)SC(=O)c1ccccc1)N(C=O)Cc1cnc(C)nc1N [crystalline form E, S-benzoylthiamine O-monophosphate]
